Earlier results on one molecule are cited in patent US20050181044A1, “Compositions and methods for timed release of water-soluble nutritional supplements, green coffee extract” (priority 2004, published 2005).

Molecules are shown by their SMILES.

The conditions of the series: absorbed by the gastrointestinal tract, after first-pass metabolism in the liver.

For orientation: bioavailability means the share of a dose that reaches the circulation, judged against a reference dose that is usually intravenous. As for `N[C@H]1C(O)O[C@H](CO)[C@@H](O)[C@@H]1O` (stereo partly shown) [Glucosamine], the bioavailability is listed as 26%.
